Structures are written as SMILES.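 In this assay, cells in 96-well plates receive the compound at five concentrations for 48 hours. Endpoints are linearly interpolated between the surrounding concentrations. At the GI50, growth is halved. TGI: total growth inhibition.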 Bounds are passed on as bounds.

Assay in all cases: DTP human tumour cell line panel, 48 h
In test [1] the test system is CAKI-1 renal.
Test [2] has as its system CCRF-CEM leukemia.
In test [3] the test system is COLO 205 colon.
The test system of test [4] is HOP-92 NSCLC.
The test system of test [5] is HT29 colon.
Test [6] relates to MALME-3M melanoma.
The subject of test [7] is NCI-H226 lung.
In test [8] the test system is SK-MEL-2 melanoma.
Test [9] relates to MDA-MB-435.
In test [10] the test system is T-47D breast.

By TGI is commonly meant the concentration giving total growth inhibition. A higher TGI goes with lower sensitivity of the cells. Take `CNC(=O)OCc1cc2ccncc2c2c1[nH]c1ccccc12`: the TGI in test [1], in test [2], in test [3], in test [4], in test [5] and in test [6] was over 100 µM each time. Besides, the TGI in test [7] and in [8] was over 100 µM in each case.

For `COc1cc2c3c(c1OCc1ccccc1)NCCC3NCC2` (stereo not drawn), the TGI in [1], in test [2], in test [3], in test [4], in [5] and in test [6] was over 100 µM each time. In addition, in [7], the total growth inhibition concentration (TGI) was over 100 µM.

In general, GI50 refers to the concentration that inhibits growth by half. For the molecule `Cc1cn2c(/C=N/N=C(N)N)c(-c3cc(Cl)sc3Cl)nc2s1`, the GI50 in [1] is 6.18 µM; in [2] it was 0.76 µM; in [5], 1.72 µM; in [8] it was 1.98 µM. In addition, the TGI in test [1] is 26 µM; in test [2], 1.57 µM; in test [5], 12.1 µM; in test [8], over 50 µM.

Take `CCCCCCCCCCNC(=S)OCCCC`: the TGI is 61.1 µM in [1]; 37.6 µM in [2]; 41.1 µM in [4]; 37.4 µM in [5]; 54.8 µM in test [6]; 27.7 µM in [8].

`NC(=O)OCC(COc1ccc(Cl)cc1)OC(=O)c1cc([N+](=O)[O-])cc([N+](=O)[O-])c1` (stereo not drawn): the TGI in test [1], in test [2], in [3], in test [4], in [5] and in test [6] was over 100 µM throughout. The TGI in [7] and in test [8] was over 100 µM throughout.

Turning to `CCOC(=O)/C(=C/c1ccc(Cl)cc1)N(CC)CC`, the total growth inhibition concentration (TGI) in [1], in test [2], in test [3], in test [4], in test [5] and in test [6] was over 100 µM in each case. For the same molecule, the TGI in [7] and in test [8] was over 100 µM each time.

In the case of `C/C=C/C=C\C(=O)C1c2cccc(O)c2C(=O)c2c(O)cc(C)cc21` (stereo not drawn), the concentration for total growth inhibition (TGI) in test [1] is 4.34 µM; in test [2], over 100 µM; in test [3], 2.99 µM; in [4], 3.33 µM; in test [5] it was 4.21 µM; in test [6], 3.12 µM. The total growth inhibition concentration (TGI) in test [7] stood at 2.57 µM; in test [8], 2.2 µM.

`COc1cccc(N2C(=O)[C@H]3[C@H]4CC(C(C)(C)C)CC[C@H]4c4c([nH]c5ccccc45)[C@H]3C2=O)c1` (stereo partly drawn): the TGI came out at 32.3 µM in test [1]; 29.7 µM in test [2]; 32.2 µM in [3]; 92.1 µM in test [5]; 47.4 µM in [6]; 40.3 µM in test [7]. The molecule further registered a TGI in [8] of 40.3 µM.

In the case of `CCC[CH2][Ge]([CH2]CCC)([CH2]CCC)[O]C(=O)C(OC(C)=O)c1ccccc1` (stereo not drawn), the GI50 in test [1] is 13.7 µM; in [2], 0.229 µM; in test [3], 6.37 µM; in test [4], 0.438 µM; in test [5], 0.742 µM; in test [6], 1.16 µM. Besides, the GI50 in test [7] is 0.351 µM; in test [8], 3.17 µM. Moreover, the TGI in test [1] was 47.4 µM; in [2], over 26.1 µM; in test [3] it was 20.9 µM; in test [4] it was 12.3 µM; in test [5], 13.8 µM; in test [6] it was 19.4 µM. Further, the TGI came out at 19.7 µM in [7] and 19.5 µM in [8].

Regarding `O=C(NCCCCCCNC(=O)NC1OCC(O)C(O)C1O)NC1OCC(O)C(O)C1O` (stereo not drawn), the TGI in test [1], in [2], in test [3], in test [4], in test [5] and in test [6] was over 100 µM in each case. For the same molecule, the concentration for total growth inhibition (TGI) in [7] and in test [8] was over 100 µM in each case.

On to `O=C1c2ccccc2CCC1(Br)Br`, for which the GI50 in test [1] was 1.65 µM; in test [2] it was 0.365 µM; in test [3], 0.671 µM; in test [4], 1.27 µM; in test [5], 2.28 µM; in [6], 1.06 µM. Further, the GI50 is 2.34 µM in test [9], 1.98 µM in test [7] and 3.13 µM in [8]. The concentration for total growth inhibition (TGI) was 3.04 µM in test [1]; 2.01 µM in [2]; 2.06 µM in test [3]; 2.58 µM in test [4]; 4.43 µM in [5]; 2.75 µM in test [6]. Besides, the TGI was found to be 6.53 µM in [9], 4.56 µM in test [7] and 11.3 µM in test [8].

For the molecule `Cc1cc2c(=O)c3ccccc3oc2c(C#N)c1C`, the concentration for total growth inhibition (TGI) in test [1], in [2], in test [3], in test [4], in test [5] and in [6] was over 100 µM throughout. Also, the TGI in test [10] was over 100 µM.

As to `CN/N=C(/CC(=O)c1sc(-n2nc(-c3ccccc3)cc2-c2ccccc2)nc1C)C(=O)Nc1ccc(Cl)c(Cl)c1`, the TGI was over 100 µM in [1]; over 100 µM in test [2]; over 100 µM in test [3]; 70.4 µM in [4]; over 100 µM in [5]; over 100 µM in test [6]. The TGI in test [7] and in test [8] was over 100 µM each time.

As to `CO[C@]12CCC(=O)N1C=Cc1c2[nH]c2ccccc12`, the TGI in test [1], in test [2], in [3], in test [4], in test [5] and in test [6] was over 100 µM each time. The molecule further showed a TGI in test [7] of over 100 µM.

With `C[CH2][Sn]([Cl])([CH2]C)[CH2]C`, the GI50 in test [2] was 0.368 µM; in [3] it was 1.48 µM; in test [4], 0.186 µM; in test [5], 0.439 µM; in [6] it was 0.572 µM; in test [7], 2.48 µM. For the same molecule, the GI50 in test [8] was 0.606 µM. The TGI in test [2] was 3.12 µM; in [3], 3.8 µM; in test [4] it was 0.689 µM; in [5], 2.62 µM; in test [6], 3.77 µM; in test [7] it was 5.36 µM. In test [8], this molecule showed a TGI of 4.48 µM.

Turning to `CC1=C2[C@@H](c3ccccc3)C3C=CC2(c2ccccc23)N(C(=O)Nc2cccc3ccccc23)C1=O` (stereo partly drawn), the TGI in [1], in test [2], in [3], in test [4] and in [6] was over 100 µM throughout.

Regarding `CC1OC(n2cc(I)c(=O)[nH]c2=O)C=CC1=O` (stereo not drawn), the TGI was 29.5 µM in [1]; 7.74 µM in [2]; 30.7 µM in test [3]; 33.9 µM in test [4]; 30.6 µM in test [5]; 28.5 µM in test [6]. Also, the results for the TGI in test [7] and in test [8] were 32.3 µM and 32.4 µM, respectively.

On to `CCOC(=O)NN(C(=O)OCC)C(C(=O)c1ccc(Cl)cc1)=C1NCCN1`, for which the TGI in test [1], in [2], in test [3], in test [4], in test [5] and in test [6] was over 100 µM throughout. The TGI in test [7] and in [8] was over 100 µM each time.

As for `N#CC(C#N)=Cc1ccc(Oc2ccccc2)cc1`, the TGI in test [1] was over 100 µM; in test [2] it was over 75.4 µM; in test [3], over 100 µM; in test [5], 56.1 µM; in test [6], 45.3 µM; in [7], over 72.8 µM. Moreover, the TGI in test [8] was over 55.7 µM.

Consider `C[C@]12CC/C(=N\OC(=O)Nc3ccccc3)C=C1CC[C@@H]1C2CC[C@@]2(C)C1CC[C@@H]2OC(=O)Nc1ccccc1` (stereo partly drawn), for which the TGI in test [1] is 19.8 µM; in [2] it was over 100 µM; in [3] it was over 100 µM; in [4], over 100 µM; in [5], over 100 µM; in test [8], over 100 µM.

Consider `O=C(CC(=O)c1cccc([N+](=O)[O-])c1)C(=O)Nc1nc([N+](=O)[O-])cs1`, for which the total growth inhibition concentration (TGI) in [1], in [2], in test [3], in test [4], in test [5] and in test [6] was over 100 µM in each case. In addition, the TGI in test [7] and in test [8] was over 100 µM in each case.

For `O=c1[nH]c(=O)n(C2OC(CO)C(O)C2O)cc1OCc1ccccc1` (stereo not drawn), the TGI in test [1] was over 100 µM; in test [2] it was over 78.1 µM; in [3] it was over 85.2 µM; in test [4], over 100 µM; in test [5] it was over 100 µM; in test [6] it was over 100 µM. The concentration for total growth inhibition (TGI) in test [7] and in [8] was over 100 µM throughout.

Take `CC(=O)OCc1c(C)c2ccccc2n1C(C)=O`: the TGI is over 100 µM in test [1]; 73.6 µM in [2]; over 100 µM in test [3]; over 100 µM in test [4]; over 100 µM in [5]; 73.7 µM in test [6]. Moreover, the TGI in test [7] is over 100 µM; in test [8] it was 43.3 µM.

On to `COc1ccc2c([nH]c3cc(O)c(C)cc32)c1CC=C(C)C`, for which the GI50 in test [2] is 5.4 µM; in [4] it was 8.03 µM; in test [6], 17.3 µM. Further, the TGI was 17.5 µM in test [2]; over 25 µM in test [3]; over 25 µM in [4]; over 25 µM in test [5]; over 25 µM in [6]; over 25 µM in test [7]. For the same molecule, the total growth inhibition concentration (TGI) in [8] was over 25 µM.

For the molecule `N=C(N)c1ccc(-c2ccc(-c3ccc(Cl)c(Cl)c3)o2)nc1`, the GI50 in test [1] was 1.47 µM; in [4] it was 1.41 µM; in test [6] it was 1.78 µM; in [9], 1.78 µM; in [7], 15.4 µM. Also, the total growth inhibition concentration (TGI) is 2.85 µM in [1]; 2.97 µM in test [4]; 3.42 µM in [6]; 3.25 µM in test [9]; 49.9 µM in test [7].

Regarding `N#C/C(=C\c1ccc([N+](=O)[O-])s1)c1nc2cc(Br)ccc2s1`, the GI50 in test [1] was 0.218 µM; in test [2], 0.161 µM; in [3] it was 0.269 µM; in test [4] it was 0.175 µM; in test [5] it was 1.92 µM; in test [6], 0.134 µM. The GI50 in test [7] was 0.152 µM; in test [8] it was 0.236 µM. The concentration for total growth inhibition (TGI) was 1.01 µM in test [1]; over 100 µM in [2]; 0.844 µM in test [3]; 0.451 µM in test [4]; over 100 µM in test [5]; 0.291 µM in test [6]. The TGI was 0.335 µM in test [7] and 0.672 µM in test [8].

In the case of `CN1CCc2cc(O)c3cc2C1Cc1ccc(cc1)Oc1cc(ccc1O)CC1c2c(cc4c(c2O3)OCO4)CCN1C` (stereo not drawn), the TGI in [2] was over 100 µM; in test [3], 28.8 µM; in test [5] it was 74.4 µM; in test [7] it was 47.7 µM; in test [8], 34.2 µM.

For the molecule `O=[N+]([O-])c1cc([N+](=O)[O-])c(C(Cl)C(Cl)c2ccccc2)cc1C(Cl)C(Cl)c1ccccc1` (stereo not drawn), the TGI in test [1] was found to be 3.25 µM; in test [2], 5.96 µM; in test [3], 3.18 µM; in test [4] it was 3.26 µM; in test [5] it was 4.67 µM; in [6] it was 3.31 µM. In addition, the total growth inhibition concentration (TGI) amounted to 5.18 µM in [7] and 3.86 µM in [8].

With `CC(C)N(C(=O)C12C3C4C5C3C1(C#N)C5C42)C(C)C` (stereo not drawn), the TGI in [1], in test [2], in test [3], in test [4], in [5] and in [6] was over 100 µM throughout. In addition, the concentration for total growth inhibition (TGI) in test [7] and in test [8] was over 100 µM throughout.

These data come from PubChem BioAssay (NCI).
